According to ChEMBL document CHEMBL1132666, “Significant compensatory role of position Y-2 conferring high affinity to non-phosphorylated inhibitors of Grb2-SH2 domain” (Bioorg Med Chem Lett, 1999):

What follows are compounds tested against Growth factor receptor-bound protein 2 (Homo sapiens, UniProt P62993) (assay: Inhibitory activity against Growth factor receptor bound protein 2).
Chain of Growth factor receptor-bound protein 2 (P62993 whole entry): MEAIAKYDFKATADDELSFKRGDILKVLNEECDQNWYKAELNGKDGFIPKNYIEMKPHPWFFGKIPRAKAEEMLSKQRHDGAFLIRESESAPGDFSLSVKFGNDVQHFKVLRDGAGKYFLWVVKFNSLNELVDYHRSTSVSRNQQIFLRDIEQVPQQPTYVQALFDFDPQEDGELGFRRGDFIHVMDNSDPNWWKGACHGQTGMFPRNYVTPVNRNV

**Q.** `CSCC[C@H]1NC(=O)CNC(=O)[C@@H](C(C)C)NC(=O)[C@@H](CC(N)=O)NC(=O)[C@@H](CCC(=O)O)NC(=O)[C@@H](Cc2ccc(O)cc2)NC(=O)[C@@H](CC(C)C)NC(=O)[C@@H](CCCC(=O)O)NC(=O)CSC[C@H](C(N)=O)NC(=O)[C@@H](Cc2ccc(O)cc2)NC1=O` was tested. Which IC50 did it give?
**A.** Its IC50 is 3.45 µM.

**Q.** For `CSCC[C@H]1NC(=O)CNC(=O)[C@@H](C(C)C)NC(=O)[C@@H](CC(N)=O)NC(=O)[C@@H](CCC(=O)O)NC(=O)[C@@H](Cc2ccc(O)cc2)NC(=O)[C@@H](CC(C)C)NC(=O)[C@@H](C)NC(=O)CSC[C@H](C(N)=O)NC(=O)[C@@H](Cc2ccc(OP(=O)(O)O)cc2)NC1=O`, which IC50 is on record?
**A.** The IC50 was 0.023 µM.

**Q.** For `CSCC[C@H]1NC(=O)CNC(=O)[C@@H](C(C)C)NC(=O)[C@@H](CC(N)=O)NC(=O)[C@@H](CCC(=O)O)NC(=O)[C@@H](Cc2ccc(O)cc2)NC(=O)[C@@H](CC(C)C)NC(=O)[C@@H](CCC(=O)O)NC(=O)CSC[C@H](C(N)=O)NC(=O)[C@@H](Cc2ccc(O)cc2)NC1=O`, which IC50 is on record?
**A.** The IC50 was 20 µM.

**Q.** How did the IC50 turn out when `CSCC[C@H]1NC(=O)CNC(=O)[C@@H](C(C)C)NC(=O)[C@@H](CC(N)=O)NC(=O)[C@@H](CCC(=O)O)NC(=O)[C@@H](Cc2ccc(O)cc2)NC(=O)[C@@H](CC(C)C)NC(=O)[C@@H](CC(C(=O)O)C(=O)O)NC(=O)CSC[C@H](C(N)=O)NC(=O)[C@@H](Cc2ccc(O)cc2)NC1=O` was run?
**A.** Its IC50 is 0.64 µM.

**Q.** With `CSCC[C@H]1NC(=O)CNC(=O)[C@@H](C(C)C)NC(=O)[C@@H](CC(N)=O)NC(=O)[C@@H](CCC(=O)O)NC(=O)[C@@H](Cc2ccc(O)cc2)NC(=O)[C@@H](CC(C)C)NC(=O)[C@@H](C)NC(=O)CSC[C@H](C(N)=O)NC(=O)[C@@H](Cc2ccc(O)cc2)NC1=O` as the compound, how does the IC50 read?
**A.** The IC50 was 100 µM.

**Q.** With `CSCC[C@H]1NC(=O)CNC(=O)[C@@H](C(C)C)NC(=O)[C@@H](CC(N)=O)NC(=O)[C@@H](CCC(=O)O)NC(=O)[C@@H](Cc2ccc(O)cc2)NC(=O)[C@@H](CC(C)C)NC(=O)[C@@H](Cc2ccc(OP(=O)(O)O)cc2)NC(=O)CSC[C@H](C(N)=O)NC(=O)[C@@H](Cc2ccc(O)cc2)NC1=O` as the compound, how does the IC50 read?
**A.** Its IC50 is 27.5 µM.

**Q.** `CSCC[C@H]1NC(=O)CNC(=O)[C@@H](C(C)C)NC(=O)[C@@H](CC(N)=O)NC(=O)[C@@H](CCC(=O)O)NC(=O)[C@@H](Cc2ccc(O)cc2)NC(=O)[C@@H](CC(C)C)NC(=O)[C@@H](CCC(=O)O)NC(=O)CSC[C@H](C(N)=O)NC(=O)[C@@H](Cc2ccc(OP(=O)(O)O)cc2)NC1=O` was tested. Which IC50 did it give?
**A.** The IC50 was 0.13 µM.

**Q.** `CSCC[C@H]1NC(=O)CNC(=O)[C@@H](C(C)C)NC(=O)[C@@H](CC(N)=O)NC(=O)[C@@H](CCC(=O)O)NC(=O)[C@@H](Cc2ccc(O)cc2)NC(=O)[C@@H](CC(C)C)NC(=O)[C@@H](Cc2ccc(OC(C(=O)O)C(=O)O)cc2)NC(=O)CSC[C@H](C(N)=O)NC(=O)[C@@H](Cc2ccc(O)cc2)NC1=O` was tested. Which IC50 did it give?
**A.** The IC50 was 64.5 µM.
